In this assay the test system is IKK-α and IκB-α. Description: Western blot of IKK-α and IκB-α, LPS-activated J774A.1 macrophages. It counts as cell-based, murine. The conditions noted are these: LPS-activated J774A.1, LPS 20 min. As to the method:
(A) RAW 264.7 macrophages (5×10^5/ml) or (B) J774A.1 macrophages (5×10^5/ml) were incubated with compound 1h or DMSO for 30 min followed by LPS (1 μg/ml) stimulating for 20 min, then the phosphorylation levels of IKK-α and IκB-α and total IκB-α protein level were analyzed by Western blot. (C) RAW 264.7 macrophages (5×10^5/ml) or (D) J774A.1 macrophages (5×10^5/ml) were incubated with compound 1h (10-40 μM) or DMSO for 30 min followed by LPS (1 μg/ml) stimulating for 20 min, then the nuclear translocation of NF-κB were analyzed by ELISA. (E) RAW-Blue™ cells (5×10^5/ml) were incubated with compound 1h (2.5-40 μM) or DMSO for 30 min followed by LPS (1 μg/ml) stimulating for 24 h, then the SEAP activity was measured by QUANTI-Blue™. […] In (C), (D), and (E), the data are expressed as the mean±SD for three separate experiments. *, **, and *** indicate a significant difference at the level of p<0.05, p<0.01, and p<0.001 respectively compared to LPS group.
Whole cell lysates were separated by SDS-PAGE and electrotransferred to a PVDF membrane. The membranes were incubated in blocking solution—5% nonfat milk in phosphate buffered saline with 0.1% Tween 20—at room temperature for 1 h. Each membrane was incubated with a specific primary antibody at room temperature for 2 h. After washing three times in PBS with 0.1% Tween 20, the membrane was incubated with an HRP-conjugated secondary antibody directed against the primary antibody. The membrane was developed by an enhanced chemiluminescence Western blot detection system.

`O=c1cc(O)cc(/C=C/C=C/C=C/C=C/c2[nH]ccc2Cl)o1` [Compound 1h]: the IκB-α degradation result is listed as “partially rescued”, the “phosphorylation level of IKK-α” value is given as “inhibited” and the “phosphorylation level of IκB-α” value was “inhibited”.

The values above are taken from patent publication US9475789B2, “Use of polyenylpyrrole derivatives for treating inflammation” (WELLHEAD BIOLOGICAL TECHNOLOGY CORP., priority 2014, dated 2016).
